From patent publication US10392368B2, “Pyrazolo and triazolo bicyclic compounds as JAK kinase inhibitors” (THERAVANCE BIOPHARMA R&D IP, LLC, priority 2017, dated 2019)

Legend:
[1] = target: T1, JAK3 (Homo sapiens, UniProt P52333); test: Biochemical JAK3 kinase assay (LanthaScreen); design: GST; purchased Life Technologies; settings: for JAK3 (pKi)-JAK1 (pKi): selectivity: difference of pKi JAK3 and pKi JAK1; for Ki: read-out: JAK 3 (pKi) (converted)
T1 sequence (P52333 1-1124): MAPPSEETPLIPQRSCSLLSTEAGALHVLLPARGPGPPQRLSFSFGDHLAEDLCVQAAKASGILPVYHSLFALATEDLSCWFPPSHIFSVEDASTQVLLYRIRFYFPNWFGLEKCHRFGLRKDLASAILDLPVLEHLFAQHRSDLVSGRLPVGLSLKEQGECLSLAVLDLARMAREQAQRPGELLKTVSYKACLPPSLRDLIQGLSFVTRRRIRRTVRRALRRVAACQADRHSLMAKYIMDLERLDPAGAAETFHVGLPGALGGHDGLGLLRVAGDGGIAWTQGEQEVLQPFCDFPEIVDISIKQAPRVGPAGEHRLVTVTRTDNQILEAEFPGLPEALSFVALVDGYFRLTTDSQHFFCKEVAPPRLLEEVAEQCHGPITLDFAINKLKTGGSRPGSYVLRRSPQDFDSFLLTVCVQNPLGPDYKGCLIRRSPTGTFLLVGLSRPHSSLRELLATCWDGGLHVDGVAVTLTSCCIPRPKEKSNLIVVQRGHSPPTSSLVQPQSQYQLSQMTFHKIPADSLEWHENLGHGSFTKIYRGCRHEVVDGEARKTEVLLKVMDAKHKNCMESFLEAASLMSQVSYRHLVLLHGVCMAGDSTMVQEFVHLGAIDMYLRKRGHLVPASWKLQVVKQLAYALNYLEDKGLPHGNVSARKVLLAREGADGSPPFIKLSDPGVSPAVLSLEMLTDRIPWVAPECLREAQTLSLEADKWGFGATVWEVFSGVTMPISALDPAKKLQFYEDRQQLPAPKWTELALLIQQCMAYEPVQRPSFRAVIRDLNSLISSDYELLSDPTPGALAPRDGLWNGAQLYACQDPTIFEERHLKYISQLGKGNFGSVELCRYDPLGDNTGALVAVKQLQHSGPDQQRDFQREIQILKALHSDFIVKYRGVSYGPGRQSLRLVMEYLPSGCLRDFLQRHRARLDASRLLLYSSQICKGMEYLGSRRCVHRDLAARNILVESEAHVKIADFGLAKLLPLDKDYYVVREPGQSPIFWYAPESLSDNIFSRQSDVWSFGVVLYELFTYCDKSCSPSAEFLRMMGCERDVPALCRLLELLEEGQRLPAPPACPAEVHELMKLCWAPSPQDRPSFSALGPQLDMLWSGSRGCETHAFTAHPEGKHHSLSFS
Summary of the method: (§1)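 Compounds were preincubated with the GST-tagged kinase and GFP-labelled STAT1 peptide for one hour before ATP initiated a one-hour reaction at ambient temperature. Phosphorylation was quantified by TR-FRET with a Tb-labelled pTyr701 antibody. Ki values were derived from IC50 using Cheng-Prusoff.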

[2] = target: T2, Tyk2 (Homo sapiens, UniProt P29597); test: Biochemical Tyk2 kinase assay (LanthaScreen); settings: for Ki: read-out: Tyk 2 (pKi) (converted)
T2 construct: GST; purchased Life Technologies
Summary of the method: as §1

[3] = target: T3, JAK2 (Homo sapiens, UniProt O60674); test: Biochemical JAK2 kinase assay (LanthaScreen); settings: for Ki: read-out: JAK 2 (pKi) (converted)
T3 construct: GST; purchased Life Technologies
Summary of the method: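 GST-tagged recombinant JAK2 pre-incubated 1 h at ambient temperature with compound and GFP-STAT1 peptide in HEPES pH 7.5/MgCl2 buffer, then ATP added for a 1 h reaction with 1% DMSO. TR-FRET read after EDTA and Tb-anti-pSTAT1 (pTyr701) addition; IC50 from 4-parameter fit, converted to pKi by Cheng-Prusoff.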

[4] = test system: oxazolone-induced colitis; test: Mouse model of oxazolone-induced colitis; format: in vivo
Protocol: Oxazolone-induced colitis is an experimental model that has a histological resemblance to human ulcerative colitis (Heller et al. Immunology, 2002, 17, 629-638). Adult BALB/C mice from Harlan were used in the assay. On day 1, animals were lightly anesthetized with isoflurane and the hairs between the shoulder were carefully removed before oxazolone (4%, 150 μL, 4:1 acetone:olive oil formulation) or vehicle solution was slowly applied for skin sensitization. Seven days after skin sensitization, the mice were fasted around 6 hours prior, anesthetized with ketamine/xylazine injection, and a 1 mL syringe equipped with a 3.5-F catheter, filled with oxazolone solution, was inserted carefully about 4 cm into the colon of the mouse. Following insertion, 50 μL of the oxazolone solution (0.8% in 1:1 ethanol:water formulation) was injected very slowly (over 30 sec using an injection pump) into the colon. Drug treatment (PO, QD or BID or TID) or vehicle was initiated a day prior to the oxazolone intrarectal (IR) challenge. Two-day post oxazolone intrarectal challenge, the disease was assessed by treatment-blinded experimenters for each mouse according to the criteria score: stool consistency score (0, normal; 2, loose; 4, diarrhea), gross bleeding score (0, absence; 2, blood tinged; 4, presence); Combined stool score endpoint=stool consistency score+stool blood score.
Select compounds were tested in the assay.

[5] = target: T4, JAK1 (Homo sapiens, UniProt P23458); test: Biochemical JAK1 kinase assay (LanthaScreen); settings: for Ki: read-out: JAK 1 (pKi) (converted)
T4 construct: GST; purchased Life Technologies
Summary of the method: as §1

[6] = test system: IL-2 stimulated pSTAT5 in Tall-1 T cells; test: Cellular JAK3 potency assay: inhibition of IL-2 stimulated pSTAT5 in Tall-1 T cells; format: cell-based, human; settings: for Tall-1 (pIC50): IL-2 stimulated pSTAT5 in Tall-1 T cells; for IC50: Homo sapiens, TALL-1, IL-2 stimulated pSTAT5 in Tall-1 T cells, read-out: Tall-1 (pIC50) (converted)
Summary of the method: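 Tall-1 human T cells (45,000/well) in phenol red-free DMEM with 10% FBS were preincubated with compound 1 h at 37 °C, then stimulated with IL-2 (final 300 ng/ml) for 30 min. Lysate pSTAT5 read by AlphaLisa; IC50 from inhibition curves, reported as pIC50 (mean±SD).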

T2 sequence (P29597 whole entry): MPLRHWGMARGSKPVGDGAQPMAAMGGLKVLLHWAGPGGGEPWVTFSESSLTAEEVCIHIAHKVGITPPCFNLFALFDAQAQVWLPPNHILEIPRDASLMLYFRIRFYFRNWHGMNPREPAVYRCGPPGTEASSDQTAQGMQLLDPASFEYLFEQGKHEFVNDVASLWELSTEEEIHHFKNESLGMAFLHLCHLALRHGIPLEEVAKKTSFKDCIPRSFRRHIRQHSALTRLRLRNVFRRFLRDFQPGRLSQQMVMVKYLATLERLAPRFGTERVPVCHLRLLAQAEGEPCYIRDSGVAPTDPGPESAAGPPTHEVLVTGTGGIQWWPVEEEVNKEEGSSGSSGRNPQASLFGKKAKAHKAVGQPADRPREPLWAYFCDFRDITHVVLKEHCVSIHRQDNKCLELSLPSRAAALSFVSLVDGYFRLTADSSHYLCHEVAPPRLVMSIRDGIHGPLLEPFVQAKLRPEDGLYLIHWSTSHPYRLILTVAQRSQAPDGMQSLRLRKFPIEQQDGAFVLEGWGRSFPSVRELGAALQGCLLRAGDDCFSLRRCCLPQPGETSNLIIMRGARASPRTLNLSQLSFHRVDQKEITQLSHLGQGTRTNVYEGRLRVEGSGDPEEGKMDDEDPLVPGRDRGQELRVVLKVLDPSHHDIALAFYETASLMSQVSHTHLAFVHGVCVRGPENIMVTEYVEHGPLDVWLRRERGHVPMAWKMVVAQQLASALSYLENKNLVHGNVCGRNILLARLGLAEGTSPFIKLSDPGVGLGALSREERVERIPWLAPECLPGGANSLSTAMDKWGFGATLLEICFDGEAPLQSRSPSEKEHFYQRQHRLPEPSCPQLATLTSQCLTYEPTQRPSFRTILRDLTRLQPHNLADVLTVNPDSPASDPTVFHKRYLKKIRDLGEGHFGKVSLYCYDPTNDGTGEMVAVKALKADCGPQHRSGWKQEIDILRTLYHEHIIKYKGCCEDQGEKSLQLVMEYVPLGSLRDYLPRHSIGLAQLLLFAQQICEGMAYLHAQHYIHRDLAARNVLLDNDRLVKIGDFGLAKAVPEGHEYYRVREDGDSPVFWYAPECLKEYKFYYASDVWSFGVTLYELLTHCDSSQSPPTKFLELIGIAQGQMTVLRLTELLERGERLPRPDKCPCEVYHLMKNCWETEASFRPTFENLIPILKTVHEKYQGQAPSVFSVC
T4 sequence (P23458 whole entry): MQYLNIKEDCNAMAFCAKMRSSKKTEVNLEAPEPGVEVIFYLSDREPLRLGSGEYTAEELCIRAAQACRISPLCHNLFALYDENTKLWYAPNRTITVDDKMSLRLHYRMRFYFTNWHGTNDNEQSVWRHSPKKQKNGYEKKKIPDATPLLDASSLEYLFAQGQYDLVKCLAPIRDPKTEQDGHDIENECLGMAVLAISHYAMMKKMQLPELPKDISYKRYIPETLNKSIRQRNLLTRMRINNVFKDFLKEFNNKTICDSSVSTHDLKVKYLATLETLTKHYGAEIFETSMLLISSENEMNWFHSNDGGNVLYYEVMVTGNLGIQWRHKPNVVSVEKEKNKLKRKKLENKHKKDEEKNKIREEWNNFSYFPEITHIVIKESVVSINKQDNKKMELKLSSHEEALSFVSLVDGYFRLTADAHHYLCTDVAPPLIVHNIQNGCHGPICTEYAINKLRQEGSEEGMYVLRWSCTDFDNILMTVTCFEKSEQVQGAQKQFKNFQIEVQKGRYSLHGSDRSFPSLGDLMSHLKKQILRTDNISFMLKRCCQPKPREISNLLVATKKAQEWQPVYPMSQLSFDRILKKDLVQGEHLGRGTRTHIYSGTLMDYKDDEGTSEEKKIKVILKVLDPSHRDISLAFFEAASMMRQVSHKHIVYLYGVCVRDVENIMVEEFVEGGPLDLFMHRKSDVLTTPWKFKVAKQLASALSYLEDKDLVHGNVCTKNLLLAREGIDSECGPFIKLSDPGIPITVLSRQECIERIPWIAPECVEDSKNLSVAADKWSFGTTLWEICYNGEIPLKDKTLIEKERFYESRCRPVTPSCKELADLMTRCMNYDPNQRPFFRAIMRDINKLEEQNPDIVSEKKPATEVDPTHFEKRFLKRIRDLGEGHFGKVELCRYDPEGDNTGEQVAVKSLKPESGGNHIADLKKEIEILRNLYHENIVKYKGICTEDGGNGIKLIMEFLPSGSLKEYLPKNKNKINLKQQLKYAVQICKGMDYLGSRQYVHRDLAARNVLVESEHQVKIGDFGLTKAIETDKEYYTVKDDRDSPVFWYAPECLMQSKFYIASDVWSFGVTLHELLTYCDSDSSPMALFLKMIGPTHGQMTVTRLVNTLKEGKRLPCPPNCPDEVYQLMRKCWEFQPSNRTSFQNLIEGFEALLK
T3 sequence (O60674 whole entry): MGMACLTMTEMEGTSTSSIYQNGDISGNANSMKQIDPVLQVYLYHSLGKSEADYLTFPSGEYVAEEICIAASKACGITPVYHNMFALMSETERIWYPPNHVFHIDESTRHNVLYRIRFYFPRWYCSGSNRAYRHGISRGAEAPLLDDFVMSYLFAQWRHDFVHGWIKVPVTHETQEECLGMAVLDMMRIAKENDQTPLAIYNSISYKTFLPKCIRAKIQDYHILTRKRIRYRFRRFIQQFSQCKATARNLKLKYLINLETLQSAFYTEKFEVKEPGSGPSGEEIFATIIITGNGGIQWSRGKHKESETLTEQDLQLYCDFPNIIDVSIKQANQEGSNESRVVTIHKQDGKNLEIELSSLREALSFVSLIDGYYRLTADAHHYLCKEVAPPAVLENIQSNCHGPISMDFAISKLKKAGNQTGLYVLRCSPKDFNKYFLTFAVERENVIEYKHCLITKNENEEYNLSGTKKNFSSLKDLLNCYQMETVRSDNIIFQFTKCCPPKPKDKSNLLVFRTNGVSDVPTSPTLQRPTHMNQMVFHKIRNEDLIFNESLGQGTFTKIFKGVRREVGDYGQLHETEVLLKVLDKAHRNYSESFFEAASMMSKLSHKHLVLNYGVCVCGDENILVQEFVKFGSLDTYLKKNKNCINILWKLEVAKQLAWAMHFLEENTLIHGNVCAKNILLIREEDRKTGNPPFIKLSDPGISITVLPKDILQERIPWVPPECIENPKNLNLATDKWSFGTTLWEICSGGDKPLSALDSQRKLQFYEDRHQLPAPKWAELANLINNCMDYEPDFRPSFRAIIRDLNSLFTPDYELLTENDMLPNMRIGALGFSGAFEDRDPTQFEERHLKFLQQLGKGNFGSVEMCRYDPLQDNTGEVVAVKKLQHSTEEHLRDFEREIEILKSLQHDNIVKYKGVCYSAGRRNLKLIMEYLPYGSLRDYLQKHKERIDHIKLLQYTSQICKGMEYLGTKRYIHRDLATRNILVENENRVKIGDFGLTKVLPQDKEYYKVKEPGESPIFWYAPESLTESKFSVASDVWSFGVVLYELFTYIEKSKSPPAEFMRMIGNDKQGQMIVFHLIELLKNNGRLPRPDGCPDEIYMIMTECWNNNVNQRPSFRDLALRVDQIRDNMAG

Row | SMILES | JAK 3 (pKi) [1] | JAK3 (pKi)-JAK1 (pKi) [1] | Tyk 2 (pKi) [2] | JAK 2 (pKi) [3] | combined stool score endpoint as compared with vehicle treated animals ([4]; 3 mg/kg (PO, BID)) | JAK 1 (pKi) [5] | Tall-1 (pIC50) [6] | Ki [1] | Ki [2] | Ki [3] | Ki [5] | IC50 [6] | combined stool score endpoint as compared with vehicle treated animals ([4]; 1 and 10 mg/kg only (PO, BID))
1 | CN(C)C/C=C/C(=O)N1CC(C)(COc2cc(-c3ccc(O)c(F)c3)cc3[nH]ncc23)C1 [Compound 3-11] | A (a pKi value≥10 (Ki≤0.1 nM)) | A (a value of 3 or above) | E (a pKi value of 7 or below (Ki of 100 nM or above)) | D (a pKi value between 7 and 8 (Ki between 100 nM and 10 nM)) | statistically significant decrease | E (a pKi value of 7 or below (Ki of 100 nM or above)) | B (a pIC50 value between 6.7 (included) and 7.5 (IC50 between 200 nM and 32 nM)) |  |  |  |  |  | 
2 | CN(C)C/C=C/C(=O)N1CC(COc2nc(-c3ccc(O)c(Cl)c3)cc3[nH]ncc23)C1 [Compound 3-34] | A (a pKi value≥10 (Ki≤0.1 nM)) | A (a value of 3 or above) | E (a pKi value of 7 or below (Ki of 100 nM or above)) | E (a pKi value of 7 or below (Ki of 100 nM or above)) | statistically significant decrease | E (a pKi value of 7 or below (Ki of 100 nM or above)) | B (a pIC50 value between 6.7 (included) and 7.5 (IC50 between 200 nM and 32 nM)) |  |  |  |  |  | 
3 | CN(C)C/C=C/C(=O)N1CC(C)(COc2nc(-c3ccc(O)cc3)cc3[nH]ncc23)C1 [Compound 3-55] | A (a pKi value≥10 (Ki≤0.1 nM)) | A (a value of 3 or above) | E (a pKi value of 7 or below (Ki of 100 nM or above)) | E (a pKi value of 7 or below (Ki of 100 nM or above)) | statistically significant decrease | E (a pKi value of 7 or below (Ki of 100 nM or above)) | B (a pIC50 value between 6.7 (included) and 7.5 (IC50 between 200 nM and 32 nM)) |  |  |  |  |  | 
4 | C=CC(=O)N1CC(C)(COc2nc(-c3ccc(O)cc3)nc3[nH]ncc23)C1 [Compound 3-57] | A (a pKi value≥10 (Ki≤0.1 nM)) | A (a value of 3 or above) | E (a pKi value of 7 or below (Ki of 100 nM or above)) | E (a pKi value of 7 or below (Ki of 100 nM or above)) | statistically significant decrease | E (a pKi value of 7 or below (Ki of 100 nM or above)) | B (a pIC50 value between 6.7 (included) and 7.5 (IC50 between 200 nM and 32 nM)) |  |  |  |  |  | 
5 | COC1(COc2cc(-c3ccc(O)c(Cl)c3)cc3[nH]ncc23)CN(C(=O)/C=C/CN(C)C)C1 [Compound 3-72] |  | A (a value of 3 or above) |  |  | statistically significant decrease |  |  | 0.0001 to 0.001 µM | > 0.1 µM | > 0.1 µM | > 0.1 µM | < 0.0316 µM | 
6 | COC1(COc2cc(-c3ccc(O)c(F)c3)cc3[nH]ncc23)CN(C(=O)/C=C/CN(C)C)C1 [Compound 3-74] |  | A (a value of 3 or above) |  |  |  |  |  | < 0.0001 µM | > 0.1 µM | > 0.1 µM | > 0.1 µM | < 0.0316 µM | statistically significant decrease
7 | C=CC(=O)N1CC(C(C)(C)Oc2cc(-c3ccc(O)c(Cl)c3)nc3[nH]ncc23)C1 [Compound 3-80] | A (a pKi value≥10 (Ki≤0.1 nM)) | A (a value of 3 or above) | E (a pKi value of 7 or below (Ki of 100 nM or above)) | E (a pKi value of 7 or below (Ki of 100 nM or above)) | statistically significant decrease | E (a pKi value of 7 or below (Ki of 100 nM or above)) | B (a pIC50 value between 6.7 (included) and 7.5 (IC50 between 200 nM and 32 nM)) |  |  |  |  |  | 
8 | C=CC(=O)N1CC(C(C)(C)Oc2cc(-c3ccc(O)c(F)c3)nc3[nH]ncc23)C1 [Compound 3-81] | A (a pKi value≥10 (Ki≤0.1 nM)) | A (a value of 3 or above) | E (a pKi value of 7 or below (Ki of 100 nM or above)) | E (a pKi value of 7 or below (Ki of 100 nM or above)) | statistically significant decrease | E (a pKi value of 7 or below (Ki of 100 nM or above)) | A (a pIC50 value≥7.5 (IC50≤32 nM)) |  |  |  |  |  | 
9 | CC(C)N(C)C/C=C/C(=O)N1CC(COc2cc(-c3ccc(O)cc3)cc3[nH]ncc23)C1 [Compound 3-113] |  | A (a value of 3 or above) |  |  |  |  |  | < 0.0001 µM | > 0.1 µM | 0.01 to 0.1 µM | > 0.1 µM | < 0.0316 µM | statistically significant decrease
10 | CN(C)C/C=C/C(=O)N1CC(Oc2cc(-c3ccc(O)cc3)cc3[nH]ncc23)(C(F)F)C1 [Compound 5-10] | B (a pKi value between 9 and 10 (Ki between 1 nM and 0.1 nM)) | A (a value of 3 or above) |  |  | statistically significant decrease | E (a pKi value of 7 or below (Ki of 100 nM or above)) | B (a pIC50 value between 6.7 (included) and 7.5 (IC50 between 200 nM and 32 nM)) |  |  |  |  |  | 
11 | C=CC(=O)N1CC[C@H](COc2cc(-c3ccc(O)cc3)cc3[nH]nnc23)C1 [Compound 23, (S)-1-(3-(((6-(4-hydroxyphenyl)-1H-benzo[d][1,2,3]triazol-4-yl)oxy)methyl)pyrrolidin-1-yl)prop-2-en-1-one] |  | A (a value of 3 or above) |  |  |  |  |  | < 0.0001 µM | > 0.1 µM | 0.01 to 0.1 µM | > 0.1 µM | 0.0316 to 0.2 µM | 
12 | C=CC(=O)N1CC[C@H](Oc2cc(-c3ccc(O)c(Cl)c3)cc3[nH]nc(C)c23)C1 [Compound 24, (S)-1-(3-((6-(3-chloro-4-hydroxyphenyl)-3-methyl-1H-indazol-4-yl)oxy)pyrrolidin-1-yl)prop-2-en-1-one] |  | A (a value of 3 or above) |  |  |  |  |  | 0.0001 to 0.001 µM | > 0.1 µM | > 0.1 µM | > 0.1 µM | < 0.0316 µM | 
